Assay results as given in ChEMBL document CHEMBL3400138, “Synthesis of 3-azabicyclo[3.2.2]nonanes and their antiprotozoal activities” (Bioorg Med Chem Lett, 2015).
Activity calls are given as the source filed them. No cut-off for these calls is given here.

How the values were obtained:
Candida tropicalis = test: Antifungal activity against Candida tropicalis ATCC 13803 at 100 ug after 48 hrs; type: functional, organism-based
Candida parapsilosis = test: Antifungal activity against Candida parapsilosis ATCC 90018 at 100 ug after 48 hrs; type: functional, organism-based
Escherichia coli = test: Antibacterial activity against Escherichia coli ATCC 25922 at 100 ug after 24 hrs; type: functional; conditions: ATCC 25922, 24 h, read-out: DIZ
Proteus mirabilis = test: Antibacterial activity against Proteus mirabilis ATCC 14153 at 100 ug after 24 hrs; type: functional; conditions: ATCC 14153, 24 h, read-out: DIZ
[1] = Selectivity index, ratio of CC50 for rat L6 cells to IC50 for Trypanosoma brucei rhodesiense STIB900; type: functional
[2] = tested on: Trypanosoma brucei rhodesiense; test: Antitrypanosomal activity against Trypanosoma brucei rhodesiense STIB900 bloodstream forms after 72 hrs by alamar blue assay; type: functional, organism-based; conditions: STIB900, 72 h
Plasmodium berghei [3] = test: Antiplasmodial activity against GFP-transfected Plasmodium berghei ANKA infected in NMRI mouse assessed as reduction in parasitemia at 50 mg/kg, ip administered 4, 24, 48 and 72 hrs post infection by FACS analysis; type: functional; conditions: route intraperitoneal
Plasmodium falciparum = test: Antiplasmodial activity against chloroquine and pyrimethamine resistant Plasmodium falciparum K1 infected in human red blood cells assessed as reduction in parasite viability after 48 hrs by [3H]-hypoxanthine incorporation assay; type: functional, organism-based
L6 = test: Cytotoxicity against rat L6 cells after 72 hrs by alamar blue assay; type: cell-based; conditions: L6, 72 h
[4] = Selectivity index, ratio of CC50 for rat L6 cells to IC50 for chloroquine and pyrimethamine resistant Plasmodium falciparum K1; type: functional
Plasmodium berghei [5] = test: Antiplasmodial activity against GFP-transfected Plasmodium berghei ANKA infected in NMRI mouse assessed as mean survival day at 50 mg/kg, ip administered 4, 24, 48 and 72 hrs post infection (reference value: 4 to 6 days); type: functional; conditions: route intraperitoneal
Plasmodium berghei [6] = test: Growth inhibition of Plasmodium berghei infected in mouse; type: functional
Plasmodium berghei [7] = test: Antiplasmodial activity against GFP-transfected Plasmodium berghei ANKA infected in NMRI mouse assessed as reduction in parasitemia at 100 mg/kg, po administered 24 hrs post infection by FACS analysis; type: functional
Plasmodium berghei [8] = test: Antiplasmodial activity against GFP-transfected Plasmodium berghei ANKA infected in NMRI mouse assessed as reduction in parasitemia at 10 mg/kg, ip administered 4, 24, 48 and 72 hrs post infection by FACS analysis; type: functional; conditions: route intraperitoneal
[9] = tested on: Staphylococcus epidermidis; test: Antibacterial activity against Staphylococcus epidermidis ATCC 12228 at 100 ug after 24 hrs; type: functional, organism-based
Plasmodium berghei [10] = test: Antiplasmodial activity against GFP-transfected Plasmodium berghei ANKA infected in NMRI mouse assessed as mean survival day at 20 mg/kg, ip administered 4, 24, 48 and 72 hrs post infection (reference value: 4 days); type: functional; conditions: route intraperitoneal
Klebsiella oxytoca = test: Antibacterial activity against Klebsiella oxytoca ATCC 8724 at 100 ug after 24 hrs; type: functional, organism-based
Plasmodium berghei [11] = test: Antiplasmodial activity against GFP-transfected Plasmodium berghei ANKA infected in NMRI mouse assessed as mean survival day at 100 mg/kg, po administered 24 hrs post infection (reference value: 3 days); type: functional
Plasmodium berghei [12] = test: Antiplasmodial activity against GFP-transfected Plasmodium berghei ANKA infected in NMRI mouse assessed as mean survival day at 200 mg/kg, po administered 24 hrs post infection (reference value: 3 days); type: functional
Bacillus subtilis = test: Antibacterial activity against Bacillus subtilis ATCC 6051 at 100 ug after 24 hrs; type: functional, organism-based
Plasmodium berghei [13] = test: Antiplasmodial activity against orally dosed GFP-transfected Plasmodium berghei ANKA infected in NMRI mouse assessed as reduction in parasitemia by FACS analysis; type: functional
[14] = tested on: Mycolicibacterium smegmatis; test: Antimycobacterial activity against Mycobacterium smegmatis ATCC 14468 assessed as inhibition of bacterial growth after 72 hrs by MTT dye based microbroth dilution assay; type: functional; conditions: ATCC 14468, 72 h
Leishmania sp. = test: Antiparasitic activity against Leishmania sp.; type: functional, organism-based
Staphylococcus aureus = test: Antibacterial activity against Staphylococcus aureus ATCC 25923 at 100 ug after 24 hrs; type: functional
Plasmodium berghei [15] = test: Antiplasmodial activity against GFP-transfected Plasmodium berghei ANKA infected in NMRI mouse assessed as reduction in parasitemia at 100 mg/kg, po administered 4, 24, 48 and 72 hrs post infection by FACS analysis; type: functional
Trypanosoma = test: Antiparasitic activity against Trypanosoma sp.; type: functional, organism-based
[16] = molecular target: Voltage-gated inwardly rectifying potassium channel KCNH2 (Homo sapiens, UniProt Q12809); test: Inhibition of human ERG expressed in HEK293 cells assessed as reduction in tail current at membrane potential of +20 mV; type: cell-based
Voltage-gated inwardly rectifying potassium channel KCNH2, sequence (Q12809 whole entry): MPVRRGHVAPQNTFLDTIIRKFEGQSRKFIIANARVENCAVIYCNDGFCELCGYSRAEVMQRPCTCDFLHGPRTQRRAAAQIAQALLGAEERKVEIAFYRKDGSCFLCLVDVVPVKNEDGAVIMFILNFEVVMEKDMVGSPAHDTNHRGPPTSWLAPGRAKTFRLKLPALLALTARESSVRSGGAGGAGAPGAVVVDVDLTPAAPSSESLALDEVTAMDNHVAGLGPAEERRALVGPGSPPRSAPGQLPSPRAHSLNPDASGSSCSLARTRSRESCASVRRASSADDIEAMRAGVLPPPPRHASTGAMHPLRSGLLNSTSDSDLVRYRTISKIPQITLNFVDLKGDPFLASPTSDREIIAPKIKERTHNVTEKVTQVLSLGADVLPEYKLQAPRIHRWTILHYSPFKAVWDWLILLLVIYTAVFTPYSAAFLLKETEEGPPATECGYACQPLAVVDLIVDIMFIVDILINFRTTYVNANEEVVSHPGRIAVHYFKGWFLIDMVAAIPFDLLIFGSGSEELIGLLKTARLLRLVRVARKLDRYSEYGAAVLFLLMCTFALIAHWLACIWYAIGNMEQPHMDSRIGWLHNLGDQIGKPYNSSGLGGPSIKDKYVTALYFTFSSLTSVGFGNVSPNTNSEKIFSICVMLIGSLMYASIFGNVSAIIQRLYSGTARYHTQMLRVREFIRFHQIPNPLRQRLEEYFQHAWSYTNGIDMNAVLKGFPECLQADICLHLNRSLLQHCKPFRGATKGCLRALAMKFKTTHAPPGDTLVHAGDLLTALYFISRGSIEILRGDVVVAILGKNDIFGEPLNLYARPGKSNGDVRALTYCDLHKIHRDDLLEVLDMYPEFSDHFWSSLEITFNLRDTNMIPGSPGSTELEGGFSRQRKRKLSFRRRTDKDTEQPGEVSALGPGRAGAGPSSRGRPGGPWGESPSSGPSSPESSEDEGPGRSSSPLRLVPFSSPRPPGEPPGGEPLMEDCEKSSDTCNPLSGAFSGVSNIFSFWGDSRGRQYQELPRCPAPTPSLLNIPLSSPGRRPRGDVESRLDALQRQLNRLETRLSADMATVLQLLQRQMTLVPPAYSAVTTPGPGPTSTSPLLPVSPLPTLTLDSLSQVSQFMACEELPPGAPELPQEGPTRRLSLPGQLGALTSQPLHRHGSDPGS

Plasmodium berghei [17] = test: Antiplasmodial activity against GFP-transfected Plasmodium berghei ANKA infected in NMRI mouse assessed as reduction in parasitemia administered intraperitoneally 4, 24, 48 and 72 hrs post infection by FACS analysis; type: functional
Mus musculus = test: Toxicity in GFP-transfected Plasmodium berghei ANKA infected NMRI mouse at 200 mg/kg, po administered 24 hrs post infection; type: organism-based; parameters: dose 200 mg/kg, route oral; conditions: in vivo
Enterococcus faecium = test: Antibacterial activity against Enterococcus faecium ATCC 6057 at 100 ug after 24 hrs; type: functional; conditions: ATCC 6057, 24 h, read-out: DIZ
hERG (KCNH2) [18] = molecular target: T1, hERG (KCNH2) (Homo sapiens, UniProt Q12809); test: Inhibition of human ERG expressed in HEK293 cells assessed as reduction in tail current at 3 uM and at membrane potential of +20 mV; type: cell-based; conditions: HEK293 cells that express hERG
T1 sequence (Q12809 whole entry): as above

hERG (KCNH2) [19] = molecular target: T1, hERG (KCNH2); test: Inhibition of human ERG expressed in HEK293 cells assessed as reduction in tail current at 3 uM and at membrane potential of +0 mV; type: cell-based; conditions: HEK293 cells that express hERG
Candida albicans = test: Antifungal activity against Candida albicans ATCC 10231 at 100 ug after 48 hrs; type: functional, organism-based
[20] = Half life in rat at 10 mg/kg, iv; type: ADME, organism-based; parameters: dose 10 mg/kg, route intravenous; conditions: in vivo
Raoultella planticola = test: Antibacterial activity against Raoultella planticola ATCC 15050 at 100 ug after 24 hrs; type: functional, organism-based
Plasmodium berghei [21] = test: Antiplasmodial activity against GFP-transfected Plasmodium berghei ANKA infected in NMRI mouse assessed as mean survival day at 100 mg/kg, po administered 4, 24, 48 and 72 hrs post infection (reference value: 4 days); type: functional
Plasmodium berghei [22] = test: Antiplasmodial activity against GFP-transfected Plasmodium berghei ANKA infected in NMRI mouse assessed as reduction in parasitemia at 200 mg/kg, po administered 24 hrs post infection by FACS analysis; type: functional
Enterococcus faecalis = test: Antibacterial activity against Enterococcus faecalis ATCC 14506 at 100 ug after 24 hrs; type: functional
Plasmodium berghei [23] = test: Antiplasmodial activity against GFP-transfected Plasmodium berghei ANKA infected in NMRI mouse assessed as reduction in parasitemia at 20 mg/kg, ip administered 4, 24, 48 and 72 hrs post infection by FACS analysis; type: functional; conditions: route intraperitoneal
Plasmodium berghei [24] = test: Antiplasmodial activity against GFP-transfected Plasmodium berghei ANKA infected in NMRI mouse assessed as mean survival day at 10 mg/kg, ip administered 4, 24, 48 and 72 hrs post infection (reference value: 4 days); type: functional; conditions: route intraperitoneal

With NYSTATIN the inhibition zone (IZ) (Candida tropicalis) was 20 mm and the inhibition zone (IZ) (Candida parapsilosis) was 25 mm.

With NC[C@H]1O[C@H](O[C@H]2[C@H](O)[C@@H](O[C@H]3O[C@H](CO)[C@@H](O)[C@H](N)[C@H]3O)[C@H](N)C[C@@H]2N)[C@H](O)[C@@H](O)[C@@H]1O [KANAMYCIN] the zone of inhibition at 100 µg/disc (Escherichia coli) was 20 mm and the zone of inhibition at 100 µg/disc (Proteus mirabilis) was 20 mm.

In the case of CN(C)C12CNCC(C(c3ccccc3)C1)C(c1ccccc1)C2.Cl (racemic), the “Ratio IC50” value [1] is reported as 77.3, the IC50 [2] is reported as 1580 nM and the inhibition in vivo at 50 mg/kg (Plasmodium berghei [3]) is reported as 0%. The IC50 (Plasmodium falciparum) was 270 nM, the IC50 (L6) was 122000 nM and the “Ratio IC50” value [4] was 452.2. For the same molecule, the MSD (Plasmodium berghei [5]) was 4 days.

With Cl.c1ccc(C2CC3(N4CCCC4)CCNC2C(c2ccccc2)C3)cc1 (racemic) the “Ratio IC50” value [1] was 103.

In the case of Cl.Clc1ccc(C2CC3(N4CCCC4)CNCC2C(c2ccc(Cl)cc2)C3)cc1 (racemic), the “Ratio IC50” value [1] is reported as 35, the IC50 [2] is reported as 260 nM and the IC50 (L6) is reported as 9110 nM.

For Cl.Clc1ccc(C2CC3(N4CCCCC4)CNCC2C(c2ccc(Cl)cc2)C3)cc1 (racemic), the “Ratio IC50” value [1] was 25.3, the IC50 [2] was 320 nM and the IC50 (Plasmodium falciparum) was 370 nM. For the same molecule, the IC50 (L6) was 8090 nM and the “Ratio IC50” value [4] was 21.86.

With CN(C)C12CCNC(C(c3ccc(Cl)cc3)C1)C(c1ccc(Cl)cc1)C2.Cl (racemic) the “Ratio IC50” value [1] was 143.

In the case of CN(C)C12CCNC(C(c3ccccc3)C1)C(c1ccccc1)C2.Cl (racemic), the “Ratio IC50” value [1] is reported as 181, the “growth inhibition (GI)” value (Plasmodium berghei [6]) is reported as 35% and the inhibition in vivo at 50 mg/kg (Plasmodium berghei [3]) is reported as 35.1%. For the same molecule, the MSD (Plasmodium berghei [5]) was 6.3 days.

With Cl.c1ccc(C2CC3(N4CCOCC4)CNCC2C(c2ccccc2)C3)cc1 (racemic) the “Ratio IC50” value [1] was 11.3, the IC50 [2] was 3840 nM and the IC50 (Plasmodium falciparum) was 650 nM. The IC50 (L6) was 43300 nM and the “Ratio IC50” value [4] was 66.63.

With Cl.c1ccc(C2CC3(N4CCCC4)CNCC2C(c2ccccc2)C3)cc1 (racemic) the “Ratio IC50” value [1] was 72.9, the inhibition in vivo at 100 mg/kg (Plasmodium berghei [7]) was 70.5% and the inhibition in vivo at 10 mg/kg (Plasmodium berghei [8]) was 25.1%. The “diameter of the inhibition zone (DIZ)” value [9] was “inactive”, the MSD (Plasmodium berghei [10]) was 10 days and the zone of inhibition at 100 µg/disc (Escherichia coli) was 10 mm. For the same molecule, the “diameter of the inhibition zone (DIZ)” value (Candida tropicalis) was “inactive”, the “diameter of the inhibition zone (DIZ)” value (Klebsiella oxytoca) was “inactive” and the IC50 [2] was 1000 nM. The MSD (Plasmodium berghei [11]) was 12 days, the MSD (Plasmodium berghei [12]) was 16 days and the “diameter of the inhibition zone (DIZ)” value (Bacillus subtilis) was “inactive”. The inhibition (Plasmodium berghei [13]) was “Dose-dependent effect”, the ED50 (Plasmodium berghei [13]; po) was 75 mg/kg and the MIC [14] was 128 µg/mL. For the same molecule, the inhibition (Leishmania sp.) was “Active”, the “diameter of the inhibition zone (DIZ)” value (Staphylococcus aureus) was “inactive” and the inhibition in vivo at 100 mg/kg (Plasmodium berghei [15]) was 97.7%. For the same molecule, the inhibition in vivo at 50 mg/kg (Plasmodium berghei [3]) was 94.8%, the inhibition (Trypanosoma) was “Active” and the IC50 [16] was 2630 nM. For the same molecule, the “inhibition (INH)” value ([16]; human, hek293) was “Dose-dependent effect”, the inhibition (Plasmodium berghei [17]) was “Dose-dependent effect” and the ED50 (Plasmodium berghei [17]; ip) was 17 mg/kg. For the same molecule, the ED90 (Plasmodium berghei [17]; ip) was 40 mg/kg, the “diameter of the inhibition zone (DIZ)” value (Candida parapsilosis) was “inactive” and the Activity (Mus musculus) was “Toxic”. For the same molecule, the zone of inhibition at 100 µg/disc (Enterococcus faecium) was 10 mm, the zone of inhibition at 100 µg/disc (Proteus mirabilis) was 11 mm and the IC50 (Plasmodium falciparum) was 95 nM. The inhibition at 3 µM (hERG (KCNH2) [18]) was 54.8%, the inhibition at 3 µM (hERG (KCNH2) [19]) was 45.9% and the “diameter of the inhibition zone (DIZ)” value (Candida albicans) was “inactive”. The half-life [20] was 18 min, the IC50 (L6) was 72900 nM and the “diameter of the inhibition zone (DIZ)” value (Raoultella planticola) was “inactive”. The “Ratio IC50” value [4] was 767.7, the MSD (Plasmodium berghei [21]) was 18.6 days and the inhibition in vivo at 200 mg/kg (Plasmodium berghei [22]) was 66.1%. The “diameter of the inhibition zone (DIZ)” value (Enterococcus faecalis) was “inactive”, the inhibition in vivo at 20 mg/kg (Plasmodium berghei [23]) was 60.1% and the MSD (Plasmodium berghei [24]) was 4 days. The MSD (Plasmodium berghei [5]) was 15 days.

For Cl.O=C1CC2(N3CCCC3)CC(c3ccccc3)C(N1)C(c1ccccc1)C2 (racemic), the “Ratio IC50” value [1] was 6.6 and the “Ratio IC50” value [4] was 28.5.

With Cl.O=C1CC2(N3CCOCC3)CC(c3ccccc3)C(N1)C(c1ccccc1)C2 (racemic) the “Ratio IC50” value [1] was 1.7, the IC50 [2] was 138000 nM and the IC50 (Plasmodium falciparum) was over 13300 nM. The IC50 (L6) was over 239000 nM and the “Ratio IC50” value [4] was 18.
